Data: ChEMBL document CHEMBL1909585 (Bioorg Med Chem Lett, 2011)

Experiments:
Tyrosinase = target: T1, Tyrosinase (Agaricus bisporus, UniProt O42713)
T1 sequence (O42713 whole entry): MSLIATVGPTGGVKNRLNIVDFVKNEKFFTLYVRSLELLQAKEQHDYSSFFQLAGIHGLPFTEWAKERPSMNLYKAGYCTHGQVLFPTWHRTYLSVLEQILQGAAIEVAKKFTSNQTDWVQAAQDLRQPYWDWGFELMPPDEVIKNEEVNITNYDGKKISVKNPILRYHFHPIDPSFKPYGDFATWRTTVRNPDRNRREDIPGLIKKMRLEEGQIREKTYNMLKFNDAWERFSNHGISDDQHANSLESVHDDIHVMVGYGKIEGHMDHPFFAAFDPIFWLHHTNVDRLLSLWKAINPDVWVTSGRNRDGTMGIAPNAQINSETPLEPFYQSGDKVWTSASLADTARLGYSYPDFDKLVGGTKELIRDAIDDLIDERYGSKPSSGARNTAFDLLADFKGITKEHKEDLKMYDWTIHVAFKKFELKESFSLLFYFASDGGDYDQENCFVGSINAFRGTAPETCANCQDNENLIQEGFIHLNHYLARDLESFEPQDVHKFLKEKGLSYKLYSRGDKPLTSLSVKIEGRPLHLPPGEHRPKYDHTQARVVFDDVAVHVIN
Description: Inhibition of mushroom tyrosinase activity using L-tyrosine as substrate by spectrometric analysis

B16 [1] = assay: cells; conditions: Mus musculus, B16, 72 h
Description: Inhibition of alpha-MSH -stimulated melanogenesis in mouse B16 cells assessed as melanin release after 72 hrs by spectrometric analysis

B16 [2] = assay: cells; conditions: Mus musculus, B16, 72 h, read-out: INH
Description: Inhibition of alpha-MSH -stimulated melanogenesis in mouse B16 cells assessed as melanin release at 10 uM after 72 hrs by spectrometric analysis

`CCc1ccccc1NC(N)=S` gave an IC50 (Tyrosinase) of 27.1 µM.

For `NC(=S)NCc1ccccc1`, the IC50 (Tyrosinase) was 25.4 µM.

In the case of `NC(=S)NCCc1ccccc1`, the IC50 (Tyrosinase) is reported as > 100 µM.

With `NC(=S)NCCCc1ccccc1` the IC50 (Tyrosinase) was 64.8 µM.

For `Cc1ccc(NC(N)=S)cc1`, the IC50 (Tyrosinase) was 1.4 µM.

With `CCc1ccc(NC(N)=S)cc1` the IC50 (Tyrosinase) was 0.8 µM.

In the case of `CC(C)(C)c1ccc(NC(N)=S)cc1`, the IC50 (Tyrosinase) is reported as 1.7 µM.

In the case of `Cc1cccc(NC(N)=S)c1`, the IC50 (Tyrosinase) is reported as 0.6 µM.

With `Cc1ccccc1NC(N)=S` the IC50 (Tyrosinase) was 0.84 µM.

`CC(C)(C)c1ccccc1NC(N)=S` was tested, and the IC50 (Tyrosinase) was > 100 µM.

In the case of `S=C1NCc2ccccc2N1`, the IC50 (Tyrosinase) is reported as > 100 µM.

For `S=C(NCCc1ccccc1)Nc1ccccc1`, the IC50 (B16 [1]) was 2.2 µM, the inhibition at 10 µM (B16 [2]) was > 100% and the IC50 (Tyrosinase) was > 100 µM.

In the case of `S=C(NCCCc1ccccc1)Nc1ccccc1`, the IC50 (B16 [1]) is reported as 1.8 µM, the inhibition at 10 µM (B16 [2]) is reported as > 100% and the IC50 (Tyrosinase) is reported as > 100 µM.

`COc1ccc(NC(S)=Nc2ccccc2)cc1` was tested, and the IC50 (B16 [1]) was 8.2 µM, the inhibition at 10 µM (B16 [2]) was 59% and the IC50 (Tyrosinase) was > 100 µM.

In the case of `CNC(=S)Nc1ccccc1`, the IC50 (B16 [1]) is reported as 35 µM, the inhibition at 10 µM (B16 [2]) is reported as 30% and the IC50 (Tyrosinase) is reported as > 100 µM.

In the case of `Cc1ccc(NC(=S)Nc2ccccc2)cc1`, the IC50 (B16 [1]) is reported as 6.3 µM, the inhibition at 10 µM (B16 [2]) is reported as 79% and the IC50 (Tyrosinase) is reported as > 100 µM.

In the case of `S=C(Nc1ccccc1)Nc1ccc(Cl)cc1`, the IC50 (B16 [1]) is reported as 3.4 µM, the inhibition at 10 µM (B16 [2]) is reported as > 100% and the IC50 (Tyrosinase) is reported as > 100 µM.

In the case of `S=C(Nc1ccccc1)NC1CCCCC1`, the IC50 (B16 [1]) is reported as 2.4 µM, the inhibition at 10 µM (B16 [2]) is reported as > 100% and the IC50 (Tyrosinase) is reported as > 100 µM.

In the case of `S=C(NCc1ccccc1)Nc1ccccc1`, the IC50 (B16 [1]) is reported as 4.7 µM, the inhibition at 10 µM (B16 [2]) is reported as 91% and the IC50 (Tyrosinase) is reported as > 100 µM.

For `CC(C)N(C(=S)Nc1ccccc1)C(C)C`, the IC50 (B16 [1]) was 19.6 µM, the inhibition at 10 µM (B16 [2]) was 30% and the IC50 (Tyrosinase) was > 100 µM.

In the case of `Oc1ccc(N/C(S)=N/c2ccccc2)cc1`, the IC50 (B16 [1]) is reported as 20.7 µM, the inhibition at 10 µM (B16 [2]) is reported as 24% and the IC50 (Tyrosinase) is reported as > 100 µM.

`Cc1ccc2c(c1)CN(CCc1ccccc1)C(=S)N2` was tested, and the IC50 (Tyrosinase) was > 100 µM.
